Patent US8993544B2, “Carbamoylphosphonates as inhibitors and uses thereof” (priority 2009, dated 2015)
Where two headings read alike, the source gives them in different places.

Tests used:
human MMP-3 = biological target: T1, human MMP-3 (Homo sapiens, UniProt P08254); assay: Determination of MMP inhibitory potency, MMP-3; type: biochemical
T1 construct: purchased R&D Systems, Minneapolis
Experimental: (§1) Recombinant enzymes, human MMP-1, MMP-2, MMP-3, MMP-8, MMP-9, MMP-12, MMP-13 and TACE (R&D Systems, Minneapolis) were incubated at four different concentrations with the relevant colorimetric or fluorescent peptide substrates (R&D Systems, Minneapolis) for 3 h. The tested compounds were added at four to six different concentrations and the inhibitory potencies expressed in a colorimetric change, was measured by an ELISA or fluorimeter.

human MMP-8 = biological target: T2, human MMP-8 (Homo sapiens, UniProt P22894); assay: Determination of MMP inhibitory potency, MMP-8; type: biochemical
T2 construct: purchased R&D Systems, Minneapolis
Experimental: as §1

human MMP-9 = biological target: T3, human MMP-9 (Homo sapiens, UniProt P14780); assay: Determination of MMP inhibitory potency, MMP-9; type: biochemical
T3 construct: purchased R&D Systems, Minneapolis
Experimental: as §1

human MMP-12 = biological target: T4, human MMP-12 (Homo sapiens, UniProt P39900); assay: Determination of MMP inhibitory potency, MMP-12; type: biochemical
T4 construct: purchased R&D Systems, Minneapolis
Experimental: as §1

human MMP-13 = biological target: T5, human MMP-13 (Homo sapiens, UniProt P45452); assay: Determination of MMP inhibitory potency, MMP-13; type: biochemical
T5 construct: purchased R&D Systems, Minneapolis
Experimental: as §1

TACE = biological target: T6, TACE (Homo sapiens, UniProt P78536); assay: Determination of inhibitory potency, TACE; type: biochemical
T6 construct: purchased R&D Systems, Minneapolis
Experimental: as §1

MMP and/or ADAM enzyme = assay: Duration of inhibitory effect on the enzymes inhibited; type: biochemical, human
Experimental: Previously, it has been established that cis-2-aminocyclohexycarbamoyl phosphonic acid (cis-ACCP), listed for the purpose of comparison in Tables 2 and 3 as “control”, was an effective nontoxic, in vivo active antimetastatic compound. […] In the study leading to the subject invention, it was determined that the inhibitory effect could be, and in fact was prolonged by substituting carbamoylphosphonic functionality with aromatic ring functionality as in the compounds of the invention. […]
as §1

MMP-2 [1] = biological target: T7, MMP-2 (Homo sapiens, UniProt P08253); assay: Determination of MMP inhibitory potency, MMP-2; type: biochemical; design: purchased R&D Systems, Minneapolis
T7 sequence (P08253 110-660): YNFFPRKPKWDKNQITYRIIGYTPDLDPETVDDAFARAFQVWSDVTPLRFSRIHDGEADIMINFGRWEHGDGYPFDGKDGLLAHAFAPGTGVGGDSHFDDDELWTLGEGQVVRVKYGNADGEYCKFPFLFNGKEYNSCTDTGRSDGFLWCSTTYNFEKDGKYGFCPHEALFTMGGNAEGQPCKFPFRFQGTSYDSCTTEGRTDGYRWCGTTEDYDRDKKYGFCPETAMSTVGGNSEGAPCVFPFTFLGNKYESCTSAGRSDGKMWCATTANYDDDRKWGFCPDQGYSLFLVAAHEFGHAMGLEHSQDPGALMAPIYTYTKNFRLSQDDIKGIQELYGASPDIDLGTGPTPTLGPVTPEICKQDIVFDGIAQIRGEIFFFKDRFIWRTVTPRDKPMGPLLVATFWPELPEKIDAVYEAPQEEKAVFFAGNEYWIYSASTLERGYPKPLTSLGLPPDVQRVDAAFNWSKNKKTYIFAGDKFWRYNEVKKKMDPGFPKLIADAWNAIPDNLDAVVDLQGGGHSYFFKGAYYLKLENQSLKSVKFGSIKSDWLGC
Experimental: as §1

tumor invasion = assay: In vitro model of tumor invasion (Boyden chamber, reconstituted basement membrane); type: cell-based; conditions: read-out: % Invasion-Inhibition by 50 μM drug
Experimental: The compound was also evaluated in an in vivo experimental model of metastasis using B16F10 tumor cells in C57B1 mice. […] The assay was carried out in a Boyden chamber with a reconstituted basement membrane (Matrigal).

MMP-2 [2] = biological target: T7, MMP-2; assay: Time dependent inhibition of MMP-2 (period of inhibition); type: biochemical; conditions: MMP-2
B16F10 tumor cells = assay: Murine melanoma model of experimental metastasis; type: in vivo, C57B1 mice; conditions: for % reduction in lung metastases relative to control: daily for three weeks, B16F10 cells i.v.
Experimental: Experimental metastasis was studied in the murine melanoma model. In this model, B16F10 tumor cells (50 k) were injected into the tail vein of C57B1 6 week old female mice. After 21 days, the metastases formed on the lungs of the mice were counted after appropriate fixation. […] One group received the inhibitor intraperitoneally and the other group orally, dissolved in PBS. Mice were monitored for toxic symptoms at alternate days.

[3] = mouse, in vivo
Experimental: The initial dose was set to 50 mg/kg as in the previous studies.
One group received the inhibitor intraperitoneally and the other group orally, dissolved in PBS. Mice were monitored for toxic symptoms at alternate days.

T1 sequence (P08254 100-477): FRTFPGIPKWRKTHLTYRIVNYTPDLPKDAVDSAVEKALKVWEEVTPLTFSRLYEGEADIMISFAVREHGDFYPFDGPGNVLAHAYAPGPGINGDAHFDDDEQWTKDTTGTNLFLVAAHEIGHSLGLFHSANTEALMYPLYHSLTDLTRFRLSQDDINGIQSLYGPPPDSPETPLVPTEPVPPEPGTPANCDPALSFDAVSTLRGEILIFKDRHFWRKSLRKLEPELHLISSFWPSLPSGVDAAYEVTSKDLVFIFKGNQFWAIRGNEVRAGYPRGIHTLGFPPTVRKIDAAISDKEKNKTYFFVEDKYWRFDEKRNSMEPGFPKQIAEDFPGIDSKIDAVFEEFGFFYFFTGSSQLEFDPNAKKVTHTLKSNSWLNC
T2 sequence (P22894 101-467): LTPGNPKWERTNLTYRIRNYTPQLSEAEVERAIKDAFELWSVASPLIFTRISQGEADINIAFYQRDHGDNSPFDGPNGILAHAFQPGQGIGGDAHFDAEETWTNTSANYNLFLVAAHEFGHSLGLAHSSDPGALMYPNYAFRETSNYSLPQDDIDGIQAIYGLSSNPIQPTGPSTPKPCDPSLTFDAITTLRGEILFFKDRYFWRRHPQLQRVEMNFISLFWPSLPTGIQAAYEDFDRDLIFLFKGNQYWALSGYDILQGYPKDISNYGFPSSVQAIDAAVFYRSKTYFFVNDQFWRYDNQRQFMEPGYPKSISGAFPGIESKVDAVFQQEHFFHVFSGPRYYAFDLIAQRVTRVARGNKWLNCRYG
T3 sequence (P14780 94-707): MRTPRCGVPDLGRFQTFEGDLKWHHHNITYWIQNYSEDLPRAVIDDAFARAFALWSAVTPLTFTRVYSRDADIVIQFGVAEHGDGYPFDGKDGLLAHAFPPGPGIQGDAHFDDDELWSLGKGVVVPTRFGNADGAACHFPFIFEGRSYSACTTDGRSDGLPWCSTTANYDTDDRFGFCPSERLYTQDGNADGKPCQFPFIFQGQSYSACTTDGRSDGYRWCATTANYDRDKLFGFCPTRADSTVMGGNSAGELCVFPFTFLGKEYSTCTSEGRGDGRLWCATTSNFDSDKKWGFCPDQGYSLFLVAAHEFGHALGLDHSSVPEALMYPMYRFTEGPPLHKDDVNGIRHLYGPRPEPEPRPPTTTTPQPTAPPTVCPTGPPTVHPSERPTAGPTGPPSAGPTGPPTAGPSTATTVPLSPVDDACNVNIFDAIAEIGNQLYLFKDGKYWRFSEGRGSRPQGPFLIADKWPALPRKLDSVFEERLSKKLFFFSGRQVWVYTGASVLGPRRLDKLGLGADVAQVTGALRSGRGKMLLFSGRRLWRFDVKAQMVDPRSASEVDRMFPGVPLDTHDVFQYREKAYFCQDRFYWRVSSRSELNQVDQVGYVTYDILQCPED
T6 sequence (P78536 215-824): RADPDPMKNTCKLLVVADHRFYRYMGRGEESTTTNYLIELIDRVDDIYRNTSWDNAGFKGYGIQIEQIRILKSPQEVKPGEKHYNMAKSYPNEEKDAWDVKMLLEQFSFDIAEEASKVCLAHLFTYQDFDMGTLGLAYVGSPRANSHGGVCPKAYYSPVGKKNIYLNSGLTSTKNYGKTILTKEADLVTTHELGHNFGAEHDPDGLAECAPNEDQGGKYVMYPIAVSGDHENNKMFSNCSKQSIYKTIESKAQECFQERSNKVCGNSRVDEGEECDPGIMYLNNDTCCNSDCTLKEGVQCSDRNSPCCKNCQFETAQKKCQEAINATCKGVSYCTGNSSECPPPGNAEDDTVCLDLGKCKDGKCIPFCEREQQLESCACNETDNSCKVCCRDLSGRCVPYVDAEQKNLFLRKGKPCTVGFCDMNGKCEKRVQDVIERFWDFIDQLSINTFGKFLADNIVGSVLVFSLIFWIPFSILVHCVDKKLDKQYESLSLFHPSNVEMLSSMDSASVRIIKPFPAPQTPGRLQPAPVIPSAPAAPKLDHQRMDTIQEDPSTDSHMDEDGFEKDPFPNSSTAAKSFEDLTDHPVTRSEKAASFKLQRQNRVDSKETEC
T4 sequence (P39900 106-470): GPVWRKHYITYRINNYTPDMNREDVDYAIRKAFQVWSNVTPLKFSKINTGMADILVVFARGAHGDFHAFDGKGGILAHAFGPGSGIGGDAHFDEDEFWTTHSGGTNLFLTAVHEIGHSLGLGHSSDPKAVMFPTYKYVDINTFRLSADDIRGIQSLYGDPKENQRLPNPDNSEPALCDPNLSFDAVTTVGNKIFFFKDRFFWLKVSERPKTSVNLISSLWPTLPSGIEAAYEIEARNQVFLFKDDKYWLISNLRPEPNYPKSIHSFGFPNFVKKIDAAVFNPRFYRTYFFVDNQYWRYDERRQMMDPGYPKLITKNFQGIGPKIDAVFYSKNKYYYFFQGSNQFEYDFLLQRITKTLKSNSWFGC

Compound	IC50 (human MMP-3; read-out: IC50 (μM) on MMP-3)	IC50 (human MMP-8; read-out: IC50 (μM) on MMP-8)	IC50 (human MMP-9; read-out: IC50 (μM) on MMP-9)	IC50 (human MMP-12; read-out: IC50 (μM) on MMP-12)	IC50 (human MMP-13; read-out: IC50 (μM) on MMP-13)	IC50 (TACE; read-out: IC50 (μM) on TACE)	Duration of inhibitory effect (MMP and/or ADAM enzyme)	IC50 (MMP-2 [1]; read-out: IC50 (μM) on MMP-2)	inhibition at 50 µM (tumor invasion)	other results
O=C(NCCCCCCCNS(=O)(=O)c1ccc(Oc2ccccc2)cc1)P(=O)(O)O [Compound 6]	> 100 µM	> 100 µM	> 100 µM	> 100 µM	> 100 µM	22 µM	>180 min	> 100 µM		
NC(CNC(=O)P(=O)(O)O)CNS(=O)(=O)c1ccc(Oc2ccccc2)cc1 (racemic) [Compound 8, 2-amino-1-(4-phenoxybenzenesulfonamido)-3-[phosphonoformamido]propane]	> 100 µM	12 µM	12 µM	15 µM	> 100 µM	12 µM	>180 min	15 µM		duration of affinity to all the enzymes inhibited (MMP and/or ADAM enzyme): > 3 h
N[C@H]1CCCC[C@H]1NC(=O)P(=O)(O)O (relative stereo) [YK-162, cis-2-aminocyclohexylcarbamoyl phosphonic acid, reference compound]							<30 min		15%	IC50 (human MMP-3): > 100 µM; IC50 (human MMP-8): > 100 µM; IC50 (human MMP-9): 20 µM; IC50 (human MMP-12): > 100 µM; IC50 (human MMP-13): > 100 µM; IC50 (TACE): > 100 µM; period of MMP-2 inhibition (MMP-2 [2]): about 30 minutes; IC50 (MMP-2 [1]): 4 µM
O=C(NCCCCNS(=O)(=O)c1ccc(Oc2ccccc2)cc1)P(=O)(O)O [Compound 3, 1-[4-phenoxybenzenesulfonamido]-4-[phosphonoformamido]butane]	> 100 µM	> 100 µM	> 100 µM	> 100 µM	25 µM	> 100 µM	>180 min	7 µM	60%	melting point: 143 to 145 °C
N[C@H](CNC(=O)P(=O)(O)O)CNS(=O)(=O)c1ccc(Oc2ccccc2)cc1 [Compound 8R, (R)-N-[2-amino-3-(4-phenoxybenzenesulfonamido)propyl]carbamoylphosphonic acid]	> 100 µM	15 µM	> 100 µM	12 µM	> 100 µM	> 100 µM	>180 min	20 µM	> 100%	
O=C(NCCCCCCNS(=O)(=O)c1ccc(Oc2ccccc2)cc1)P(=O)(O)O [Compound 5, 1-[4-Phenoxybenzenesulfonamido]-6-[phosphonoformamido]hexane]	> 100 µM	> 100 µM	> 100 µM	> 100 µM	80 µM	20 µM		5 µM	77%	% reduction in lung metastases relative to control (B16F10 tumor cells; Intraperitoneal, 25 mg/kg): 90%; % reduction in lung metastases relative to control (B16F10 tumor cells; Per-oral, 50 mg/kg): 50%; % reduction in lung metastases relative to control (B16F10 tumor cells; Per-oral, 150 mg/kg): 86%; toxic effects in mice [3]: without any toxic effects; toxicity in mice (text, FIG. 5) [3]: toxic; Toxicity in mice (Table 4) ([3]; ip, 50 mg/kg): Toxic
N[C@@H](CNC(=O)P(=O)(O)O)CNS(=O)(=O)c1ccc(Oc2ccccc2)cc1 [Compound 8S, (S)-N-[2-amino-3-(4-phenoxybenzenesulfonamido)propyl]carbamoylphosphonic acid]		> 100 µM	> 100 µM	> 100 µM	> 100 µM	> 100 µM	>180 min	15 µM	> 100%	
O=C(NCCCNS(=O)(=O)c1ccc(Oc2ccccc2)cc1)P(=O)(O)O [Compound 2, 1-[4-phenoxybenzenesulfonamido]-3-[phosphonoformamido]propane]	35 µM	> 100 µM	> 100 µM	> 100 µM	25 µM	> 100 µM	>180 min	10 µM	49%	melting point: 165 to 168 °C
O=C(NCCNCCNS(=O)(=O)c1ccc(Oc2ccccc2)cc1)P(=O)(O)O [Compound 10, N-{2-[2-(4-Phenoxybenzenesulfonylamino)-ethylamino]-ethyl}-carbamoylphosphonic acid]	> 100 µM	> 100 µM	> 100 µM			> 100 µM	>180 min	20 µM		melting point: 224 to 225 °C
O=C(NCCCCCCCCNS(=O)(=O)c1ccc(Oc2ccccc2)cc1)P(=O)(O)O [Compound 7]	> 100 µM	> 100 µM	> 100 µM	> 100 µM	> 100 µM	17 µM	>180 min	> 100 µM		
O=C(NCCCCCNS(=O)(=O)c1ccc(Oc2ccccc2)cc1)P(=O)(O)O [Compound 4]	> 100 µM	> 100 µM	> 100 µM	80 µM	60 µM	> 100 µM		5 µM	62%	inhibition of metastasis formation (B16F10 tumor cells; 50 mg/kg): > 80%; % reduction in lung metastases relative to control (B16F10 tumor cells; Intraperitoneal, 25 mg/kg): 76%; % reduction in lung metastases relative to control (B16F10 tumor cells; Intraperitoneal, 50 mg/kg): 90%; % reduction in lung metastases relative to control (B16F10 tumor cells; Per-oral, 50 mg/kg): 80%; % reduction in lung metastases relative to control (B16F10 tumor cells; Per-oral, 150 mg/kg): 86%
